A word on the melting point: it is the temperature of the solid-liquid transition.

Each structure is given as a SMILES string.

Results on 14 molecules are retold here after patent US8044082B2, “N-phenylacetamide inhibitors of the enzyme SOAT-1 and pharmaceutical/cosmetic compositions comprised thereof” (Galderma Research & Development, priority 2007, dated 2011).

The molecule `CC(C)c1cccc(C(C)C)c1NC(=O)CN1C(=O)N(c2ccccc2)C2(CCCCC2)C1=O` [compound (I.2), N-(2,6-Diisopropylphenyl)-2-(2,4-dioxo-1-phenyl-1,3-diazaspiro[4.5]dec-3-yl)acetamide] gave a melting point of 245 °C.

On to `Cc1cc(C(=O)N(C)C2CCCCC2)cc(C)c1NC(=O)CN1C(=O)N(c2ccccc2)C2(CCCCC2)C1=O` [compound (I.3), N-(Cyclohexyl)-4-[2-(2,4-dioxo-1-phenyl-1,3-diazaspiro[4.5]dec-3-yl]-acetylamino]-3,5,N-trimethylbenzamide], for which the melting point is 177 °C.

`Cc1cc(C(=O)N(C)c2ccccc2)cc(C)c1NC(=O)CN1C(=O)N(c2ccccc2)C2(CCCCC2)C1=O` [compound (I.4), 4-[2-(2,4-Dioxo-1-phenyl-1,3-diazaspiro[4.5]dec-3-y]acetylamino]-3,5,N-tri methyl-N-phenylbenzamide] registered a melting point of 242 °C.

For the molecule `CC(C)c1cccc(C(C)C)c1NC(=O)CN1C(=O)N(c2ccc(Cl)cc2)C2(CCCCC2)C1=O` [compound (I.6), 2-[1-(4-Chlorophenyl)-2,4-dioxo-1,3-diazaspiro[4.5]dec-3-yl]-N-(2,6-di-isopropylphenyl)acetamide], the melting point came out at 237 °C.

On to `COc1ccc(N2C(=O)N(CC(=O)Nc3c(C(C)C)cccc3C(C)C)C(=O)C23CCCCC3)cc1` [compound (I.8), N-(2,6-Diisopropylphenyl)-2-[1-(4-methoxyphenyl)-2,4-dioxo-1,3-diazaspiro[4.5]dec-3-yl]acetamide], for which the melting point turned out to be 193 °C.

`CC(C)c1cccc(C(C)C)c1NC(=O)CN1C(=O)N(c2ccccc2)C2(CCCCCC2)C1=O` [compound (I.9), N-(2,6-Diisopropylphenyl)-2-(2,4-dioxo-1-phenyl-1,3-diazaspiro[4.6]undec-3-yl)acetamide] returned a melting point of 230 °C.

As for `CC(C)c1cccc(C(C)C)c1NC(=O)CN1C(=O)N(c2cccc(F)c2)C2(CCCCC2)C1=O` [compound (I.11), N-(2,6-Diisopropylphenyl)-2-[1-(3-fluorophenyl)-2,4-dioxo-1,3-diazaspiro[4.5]dec-3-yl]acetamide], the melting point was 234 °C.

Take `CC(C)c1cccc(C(C)C)c1NC(=O)CN1C(=O)N(c2cccc(Cl)c2)C2(CCCCC2)C1=O` [compound (I.12), 2-[1-(3-Chlorophenyl)-2,4-dioxo-1,3-diazaspiro[4.5]dec-3-yl]-N-(2,6-di-isopropylphenyl)acetamide]: the melting point was 240 °C.

The molecule `CC(C)c1cccc(C(C)C)c1NC(=O)CN1C(=O)N(C2CCCC2)C2(CCCCC2)C1=O` [compound (I.13), 2-(1-Cyclopentyl-2,4-dioxo-1,3-diazaspiro[4.5]dec-3-yl)-N-(2,6-diisopropyl-phenyl)acetamide] yielded a melting point of 257 °C.

For `CC(C)c1cccc(C(C)C)c1NC(=O)CN1C(=O)N(C2CCCCCC2)C2(CCCCC2)C1=O` [compound (I.15)], the melting point amounted to 248 °C.

For the molecule `Cc1cccc(N2C(=O)N(CC(=O)Nc3c(C(C)C)cccc3C(C)C)C(=O)C23CCCCC3)c1` [compound (I.16), N-(2,6-Diisopropylphenyl)-2-(2,4-dioxo-1-m-tolyl-1,3-diazaspiro[4.5]dec-3-yl)acetamide], the melting point was 215 °C.

`CC(C)c1cccc(C(C)C)c1NC(=O)CN1C(=O)N(c2ccc(F)cc2)C2(CCCC2)C1=O` [compound (I.17), N-(2,6-Diisopropylphenyl)-2-[1-(4-fluorophenyl)-2,4-dioxo-1,3-diazaspiro[4.4]non-3-yl]acetamide] showed a melting point of 268 °C.

Molecule `COc1cccc(N2C(=O)N(CC(=O)Nc3c(C(C)C)cccc3C(C)C)C(=O)C23CCCCC3)c1` [compound (I.18), N-(2,6-Diisopropylphenyl)-2-[1-(3-methoxyphenyl)-2,4-dioxo-1,3-diazaspiro[4.5]dec-3-yl]acetamide] returned a melting point of 198 °C.

As for `CC(C)c1cccc(C(C)C)c1NC(=O)CN1C(=O)N(c2ccccc2F)C2(CCCCC2)C1=O` [compound (I.19)], the melting point worked out at 231 °C.
